In patent publication US20170326125A1, “MULTISUBSTITUTED AROMATIC COMPOUNDS AS INHIBITORS OF THROMBIN” (VERSEON CORPORATION, priority 2016, published 2017):

Molecular target: T1, Human thrombin (Homo sapiens, UniProt P00734)
T1 construct: purchased Haematologic Technologies Inc
Assay: Inhibition of the protease activity of thrombin (chromogenic substrate S-2238)
Type: biochemical
Settings: Table C; 3 nM thrombin, 125 μM S-2238, 10 min pre-incubation, RT

Structure (SMILES)	IC50 [µM]
Nc1nc(-c2cccs2)n[nH]1 [Cmpd 373, 3-(thiophen-2-yl)-1H-1,2,4-triazol-5-amine]	> 1
Cc1ccc(CNc2nc(-c3cccnc3)nn2C(=O)C(C)C)cc1 [Cmpd 366, 2-methyl-1-(5-[(4-methylphenyl)methyl]amino-3-(pyridin-3-yl)-1H-1,2,4-triazol-1-yl)propan-1-one]	< 0.1
O=C(c1ccccc1Cl)n1nc(-c2cccnc2)nc1NCc1ccc(F)cc1 [Cmpd 332, 1-[(2-chlorophenyl)carbonyl]-N-[(4-fluorophenyl)methyl]-3-(pyridin-3-yl)-1H-1,2,4-triazol-5-amine]	< 0.1
CCC(=O)n1nc(-c2ccc(F)cc2)nc1NCc1ccccc1 [Cmpd 345, 1-[5-(benzylamino)-3-(4-fluorophenyl)-1H-1,2,4-triazol-1-yl]propan-1-one]	> 1
CCC(=O)n1nc(-c2ccco2)nc1SC [Cmpd 341, 1-[3-(furan-2-yl)-5-(methylsulfanyl)-1H-1,2,4-triazol-1-yl]propan-1-one]	> 1

Same assay, conditions: inhibition of the protease activity of thrombin

Structure (SMILES)	IC50 [µM]
COc1ccccc1C(=O)c1cn(-c2ccccc2)nc1N(Cc1ccc(F)cc1)C(=O)OC(C)(C)C [Cmpd 303, tert-butyl N-[(4-fluorophenyl)methyl]-N-4-[(2-methoxyphenyl)carbonyl]-1-phenyl-1H-pyrazol-3-ylcarbamate]	> 1
O=C(c1ccccc1Br)n1nc(-c2ccccn2)nc1NCc1ccccc1 [Cmpd 240, N-benzyl-1-[(2-bromophenyl)carbonyl]-3-(pyridin-2-yl)-1H-1,2,4-triazol-5-amine]	< 0.1
CCNC(=O)n1nc(-c2cccnc2)nc1NCc1ccc(F)cc1 [Cmpd 296, N-ethyl-5-[(4-fluorophenyl)methyl]amino-3-(pyridin-3-yl)-1H-1,2,4-triazole-1-carboxamide]	> 1
CCN(C)C(=O)c1cc(-c2ccccn2)nn1CCc1ccc(F)cc1 [Cmpd 293, N-ethyl-1-[2-(4-fluorophenyl)ethyl]-N-methyl-3-(pyridin-2-yl)-1H-pyrazole-5-carboxamide]	> 1

Same assay, conditions: inhibition of the protease activity of thrombin; class symbols a/b/c

Structure (SMILES)	IC50 [µM]
Fc1ccc(CN(Cc2ccc(F)cc2)c2cc(-c3ccccn3)nn2-c2ccccc2Cl)cc1 [Cmpd 44]	> 1
CC(C)(C)C(=O)n1nc(-c2ccncc2)nc1NCc1ccccc1 [Cmpd 145, 1-[5-(benzylamino)-3-(pyridin-4-yl)-1H-1,2,4-triazol-1-yl]-2,2-dimethylpropan-1-one]	< 0.1
O=C(c1ccccc1Cl)n1nc(-c2cccnc2)nc1SCc1ccc(F)cc1 [Cmpd 181, 3-1-[(2-chlorophenyl)carbonyl]-5-[(4-fluorophenyl)methyl]sulfanyl-1H-1,2,4-triazol-3-ylpyridine]	0.1 to 1
COc1ccccc1C(=O)n1nc(-c2ncccn2)nc1NCc1ccccc1 [Cmpd 35]	< 0.1
O=C(c1ccccc1Cl)n1nc(-c2ccccn2)nc1NCc1ccc(F)cc1 [Cmpd 111, 1-[(2-chlorophenyl)carbonyl]-N-[(4-fluorophenyl)methyl]-3-(pyridin-2-yl)-1H-1,2,4-triazol-5-amine]	< 0.1
CCC(=O)n1nc(-c2cccnc2)nc1SCc1ccc(F)cc1 [Cmpd 86, 1-(5-[(4-fluorophenyl)methyl]sulfanyl-3-(pyridin-3-yl)-1H-1,2,4-triazol-1-yl)propan-1-one]	< 0.1
c1cncc(-c2n[nH]c(NCc3cccs3)n2)c1 [Cmpd 178, 3-(pyridin-3-yl)-N-(thiophen-2-ylmethyl)-1H-1,2,4-triazol-5-amine]	> 1
O=C(c1ccccc1Cl)n1nc(-c2ccccc2)cc1NCc1ccc(F)cc1 [Cmpd 114, 1-[(2-chlorophenyl)carbonyl]-N-[(4-fluorophenyl)methyl]-3-phenyl-1H-pyrazol-5-amine]	> 1
CCC(=O)n1nc(-c2cccnc2)nc1NCCN1CCOCC1 [Cmpd 23]	> 1
CCC(=O)n1nc(-c2cccnc2)nc1NCc1ccc(C#N)cc1 [Cmpd 10]	> 1
